The test deals with T1, T1R2/T1R3 taste receptor (Homo sapiens, UniProt Q8TE23).
T1 sequence (Q8TE23 20-839): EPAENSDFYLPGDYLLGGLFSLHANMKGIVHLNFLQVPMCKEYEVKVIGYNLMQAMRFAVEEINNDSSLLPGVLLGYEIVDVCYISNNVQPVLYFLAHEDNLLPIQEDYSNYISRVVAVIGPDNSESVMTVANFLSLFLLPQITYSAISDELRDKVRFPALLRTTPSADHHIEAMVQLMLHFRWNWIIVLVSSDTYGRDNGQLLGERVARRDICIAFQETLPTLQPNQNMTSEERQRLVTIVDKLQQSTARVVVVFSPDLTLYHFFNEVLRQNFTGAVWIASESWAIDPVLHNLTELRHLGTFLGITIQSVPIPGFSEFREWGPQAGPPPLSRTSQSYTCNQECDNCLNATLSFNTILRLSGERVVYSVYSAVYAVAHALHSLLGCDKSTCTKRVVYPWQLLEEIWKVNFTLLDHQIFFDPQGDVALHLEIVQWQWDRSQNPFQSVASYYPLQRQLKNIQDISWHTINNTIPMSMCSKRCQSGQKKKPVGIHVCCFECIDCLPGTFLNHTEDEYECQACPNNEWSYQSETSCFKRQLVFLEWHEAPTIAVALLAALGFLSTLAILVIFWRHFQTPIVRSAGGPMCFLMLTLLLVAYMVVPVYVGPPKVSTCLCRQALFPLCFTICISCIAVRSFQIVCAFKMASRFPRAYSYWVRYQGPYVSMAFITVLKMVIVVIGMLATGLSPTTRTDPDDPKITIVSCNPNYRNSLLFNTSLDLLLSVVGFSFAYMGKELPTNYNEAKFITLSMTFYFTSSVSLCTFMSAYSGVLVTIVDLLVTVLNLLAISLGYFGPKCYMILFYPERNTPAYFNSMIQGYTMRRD
T1 sequence (Q7RTX0 21-852 partner): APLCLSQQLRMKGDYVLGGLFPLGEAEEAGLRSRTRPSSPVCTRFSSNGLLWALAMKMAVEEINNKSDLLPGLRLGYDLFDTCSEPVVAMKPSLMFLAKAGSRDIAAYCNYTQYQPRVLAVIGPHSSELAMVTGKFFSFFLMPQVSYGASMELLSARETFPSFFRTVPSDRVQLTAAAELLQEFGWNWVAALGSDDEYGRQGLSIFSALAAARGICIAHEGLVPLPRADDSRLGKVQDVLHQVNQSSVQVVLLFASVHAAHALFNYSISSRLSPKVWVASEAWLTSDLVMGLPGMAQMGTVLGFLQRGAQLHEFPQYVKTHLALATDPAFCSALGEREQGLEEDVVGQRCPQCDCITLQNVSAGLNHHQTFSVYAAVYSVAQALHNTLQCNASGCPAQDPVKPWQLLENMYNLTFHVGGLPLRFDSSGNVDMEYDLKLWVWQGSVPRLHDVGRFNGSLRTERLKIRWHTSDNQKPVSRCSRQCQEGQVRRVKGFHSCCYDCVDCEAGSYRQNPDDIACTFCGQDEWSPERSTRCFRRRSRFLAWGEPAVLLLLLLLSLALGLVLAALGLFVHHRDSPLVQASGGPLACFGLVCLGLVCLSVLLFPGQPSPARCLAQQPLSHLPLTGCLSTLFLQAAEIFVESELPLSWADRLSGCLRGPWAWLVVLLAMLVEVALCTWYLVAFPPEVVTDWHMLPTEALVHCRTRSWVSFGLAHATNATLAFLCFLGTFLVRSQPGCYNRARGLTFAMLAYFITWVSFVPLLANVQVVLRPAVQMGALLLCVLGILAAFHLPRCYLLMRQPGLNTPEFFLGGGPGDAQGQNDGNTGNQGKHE
In words: Receptor-based assay: sweetener EC50 alone and with test compound (enhancement ratio). It is filed as cell-based. The following applies: for Fructose Enhancement EC50 Ratio: sweetener fructose; for Sucralose Enhancement EC50 Ratio: sweetener sucralose; for Sucrose Enhancement EC50 Ratio: sweetener sucrose. How it is done:
Potencies (EC50 values) for the sweeteners sucrose, sucralose, and fructose were measured against the T1R2/T1R3 taste receptor. EC50 was determined using the sweetener alone and in the presence of 3 μM, 10 μM, or 50 μM of test compound. EC50 ratios were calculated by the ratio of potency with and without the test compound. An “A” value indicates an enhancement ratio of greater than 20. A “B” value indicates an enhancement ratio from 10 to 20. A “C” value indicates an enhancement ratio greater than 1 and less than 10.

As to `COc1cc(OC)nc(N2CCC[C@H](COc3cccc4c3C(N)=NS(=O)(=O)N4)C2)n1` [Compound 306], where the note is “10 μM test compound”, the “Fructose Enhancement EC50 Ratio” value was “C (A “C” value indicates an enhancement ratio greater than 1 and less than 10)”; the “Sucralose Enhancement EC50 Ratio” value is “B (A “B” value indicates an enhancement ratio from 10 to 20)”; the “Sucrose Enhancement EC50 Ratio” value was “C (A “C” value indicates an enhancement ratio greater than 1 and less than 10)”. Further, under “50 μM test compound”, the “Sucralose Enhancement EC50 Ratio” value is recorded as “B (A “B” value indicates an enhancement ratio from 10 to 20)”; the “Sucrose Enhancement EC50 Ratio” value is “C (A “C” value indicates an enhancement ratio greater than 1 and less than 10)”. The “Sucrose Enhancement EC50 Ratio” value (3 μM test compound) is “C (A “C” value indicates an enhancement ratio greater than 1 and less than 10)”.
For `Cc1cc(C(=O)O)nc(N2CCC[C@H](COc3cccc4c3C(N)=NS(=O)(=O)N4)C2)n1` [Compound 307], under “10 μM test compound”, the “Fructose Enhancement EC50 Ratio” value is “C (A “C” value indicates an enhancement ratio greater than 1 and less than 10)”; the “Sucralose Enhancement EC50 Ratio” value was “A (An “A” value indicates an enhancement ratio of greater than 20)”; the “Sucrose Enhancement EC50 Ratio” value was “C (A “C” value indicates an enhancement ratio greater than 1 and less than 10)”. Further, under “50 μM test compound”, the “Fructose Enhancement EC50 Ratio” value was “C (A “C” value indicates an enhancement ratio greater than 1 and less than 10)”; the “Sucralose Enhancement EC50 Ratio” value is reported as “A (An “A” value indicates an enhancement ratio of greater than 20)”; the “Sucrose Enhancement EC50 Ratio” value was “C (A “C” value indicates an enhancement ratio greater than 1 and less than 10)”. Also, the “Sucrose Enhancement EC50 Ratio” value (3 μM test compound) is “C (A “C” value indicates an enhancement ratio greater than 1 and less than 10)”.
For the compound `NC1=NS(=O)(=O)Nc2cccc(OC[C@H]3CCCN(c4cccc(C(=O)NC5CC5)n4)C3)c21` [Compound 400, (S)-6-(3-(((4-amino-2,2-dioxido-1H-benzo[c][1,2,6]thiadiazin-5-yl)oxy)methyl)piperidin-1-yl)-N-cyclopropylpicolinamide], for the setting “10 μM test compound”, the “Fructose Enhancement EC50 Ratio” value is “C (A “C” value indicates an enhancement ratio greater than 1 and less than 10)”; the “Sucralose Enhancement EC50 Ratio” value is listed as “A (An “A” value indicates an enhancement ratio of greater than 20)”; the “Sucrose Enhancement EC50 Ratio” value is “C (A “C” value indicates an enhancement ratio greater than 1 and less than 10)”. For the same compound, where the note is “50 μM test compound”, the “Fructose Enhancement EC50 Ratio” value is “C (A “C” value indicates an enhancement ratio greater than 1 and less than 10)”; the “Sucralose Enhancement EC50 Ratio” value is listed as “A (An “A” value indicates an enhancement ratio of greater than 20)”; the “Sucrose Enhancement EC50 Ratio” value is reported as “B (A “B” value indicates an enhancement ratio from 10 to 20)”. Further, for the setting “3 μM test compound”, the “Sucrose Enhancement EC50 Ratio” value was “C (A “C” value indicates an enhancement ratio greater than 1 and less than 10)”.
As for `CNC(=O)c1cccc(N2CCC[C@H](COc3cccc4c3C(N)=NS(=O)(=O)N4)C2)n1` [Compound 401], the “Sucralose Enhancement EC50 Ratio” value by setting is: (10 μM test compound) “A (An “A” value indicates an enhancement ratio of greater than 20)”; (50 μM test compound) “A (An “A” value indicates an enhancement ratio of greater than 20)”. The “Sucrose Enhancement EC50 Ratio” value is “C (A “C” value indicates an enhancement ratio greater than 1 and less than 10)” (3 μM test compound); “B (A “B” value indicates an enhancement ratio from 10 to 20)” (10 μM test compound); “C (A “C” value indicates an enhancement ratio greater than 1 and less than 10)” (50 μM test compound).
As for `CCNC(=O)c1cccc(N2CCC[C@H](COc3cccc4c3C(N)=NS(=O)(=O)N4)C2)n1` [Compound 402], the “Sucralose Enhancement EC50 Ratio” value runs as follows: (10 μM test compound) “A (An “A” value indicates an enhancement ratio of greater than 20)”; (50 μM test compound) “A (An “A” value indicates an enhancement ratio of greater than 20)”. The “Sucrose Enhancement EC50 Ratio” value is “C (A “C” value indicates an enhancement ratio greater than 1 and less than 10)” (3 μM test compound); “C (A “C” value indicates an enhancement ratio greater than 1 and less than 10)” (10 μM test compound); “C (A “C” value indicates an enhancement ratio greater than 1 and less than 10)” (50 μM test compound).
In the case of `CCCNC(=O)c1cccc(N2CCC[C@H](COc3cccc4c3C(N)=NS(=O)(=O)N4)C2)n1` [Compound 403], for the setting “10 μM test compound”, the “Fructose Enhancement EC50 Ratio” value was “C (A “C” value indicates an enhancement ratio greater than 1 and less than 10)”; the “Sucralose Enhancement EC50 Ratio” value is listed as “A (An “A” value indicates an enhancement ratio of greater than 20)”; the “Sucrose Enhancement EC50 Ratio” value is “C (A “C” value indicates an enhancement ratio greater than 1 and less than 10)”. For the same compound, for the setting “50 μM test compound”, the “Sucralose Enhancement EC50 Ratio” value is reported as “A (An “A” value indicates an enhancement ratio of greater than 20)”; the “Sucrose Enhancement EC50 Ratio” value is “C (A “C” value indicates an enhancement ratio greater than 1 and less than 10)”. Further, where the note is “3 μM test compound”, the “Sucrose Enhancement EC50 Ratio” value was “C (A “C” value indicates an enhancement ratio greater than 1 and less than 10)”.
With `COCCNC(=O)c1cccc(N2CCC[C@H](COc3cccc4c3C(N)=NS(=O)(=O)N4)C2)n1` [Compound 405], where the note is “10 μM test compound”, the “Fructose Enhancement EC50 Ratio” value is “C (A “C” value indicates an enhancement ratio greater than 1 and less than 10)”; the “Sucralose Enhancement EC50 Ratio” value is reported as “B (A “B” value indicates an enhancement ratio from 10 to 20)”; the “Sucrose Enhancement EC50 Ratio” value is “C (A “C” value indicates an enhancement ratio greater than 1 and less than 10)”. Besides, under “3 μM test compound”, the “Sucrose Enhancement EC50 Ratio” value was “C (A “C” value indicates an enhancement ratio greater than 1 and less than 10)”.
As to `CN(C)CCNC(=O)c1cccc(N2CCC[C@H](COc3cccc4c3C(N)=NS(=O)(=O)N4)C2)n1` [Compound 406], under “10 μM test compound”, the “Fructose Enhancement EC50 Ratio” value was “C (A “C” value indicates an enhancement ratio greater than 1 and less than 10)”; the “Sucralose Enhancement EC50 Ratio” value is “A (An “A” value indicates an enhancement ratio of greater than 20)”; the “Sucrose Enhancement EC50 Ratio” value is recorded as “B (A “B” value indicates an enhancement ratio from 10 to 20)”. Besides, where the note is “50 μM test compound”, the “Fructose Enhancement EC50 Ratio” value is “C (A “C” value indicates an enhancement ratio greater than 1 and less than 10)”; the “Sucrose Enhancement EC50 Ratio” value is recorded as “B (A “B” value indicates an enhancement ratio from 10 to 20)”. Further, the “Sucrose Enhancement EC50 Ratio” value (3 μM test compound) is “C (A “C” value indicates an enhancement ratio greater than 1 and less than 10)”.
With `CC(C)NC(=O)c1cccc(N2CCC[C@H](COc3cccc4c3C(N)=NS(=O)(=O)N4)C2)n1` [Compound 407], where the note is “10 μM test compound”, the “Fructose Enhancement EC50 Ratio” value was “C (A “C” value indicates an enhancement ratio greater than 1 and less than 10)”; the “Sucrose Enhancement EC50 Ratio” value is recorded as “B (A “B” value indicates an enhancement ratio from 10 to 20)”. In addition, under “50 μM test compound”, the “Fructose Enhancement EC50 Ratio” value was “C (A “C” value indicates an enhancement ratio greater than 1 and less than 10)”; the “Sucrose Enhancement EC50 Ratio” value was “C (A “C” value indicates an enhancement ratio greater than 1 and less than 10)”.

Values taken from patent US11945813B2, “5-substituted 4-amino-1H-benzo[c][1,2,6]thiadiazine 2,2-dioxides and formulations and uses thereof” (Firmenich Incorporated, priority 2018, dated 2024).
